Numbers after ± are expanded uncertainties.
Test: xn = mol fraction of the nth substance listed
Conditions: 101 kPa, Liquid; for viscosity: Capillary tube (Ostwald / Ubbelohde) method; for mass density: Pycnometric method

Cc1ccncc1 [4-methylpyridine] + O
Conditions | mass density [kg/m3] | viscosity [mPa·s]
298.15 K, x1 = 0.0211 | 996.2 ± 0.4 | 1.172 ± 0.01
298.15 K, x1 = 0.0489 | 993.6 ± 0.5 | 1.499 ± 0.013
298.15 K, x1 = 0.1143 | 991.3 ± 0.5 | 2.141 ± 0.017
298.15 K, x1 = 0.225 | 984.8 ± 0.8 | 2.602 ± 0.021
298.15 K, x1 = 0.3111 | 983 ± 0.6 | 2.521 ± 0.022
298.15 K, x1 = 0.4 | 978.9 ± 0.9 | 2.202 ± 0.021
298.15 K, x1 = 0.5 | 970.4 ± 1 | 1.88 ± 0.017
298.15 K, x1 = 0.6353 | 964.1 ± 0.8 | 1.539 ± 0.015
298.15 K, x1 = 0.75 | 961.4 ± 0.8 | 1.379 ± 0.013
298.15 K, x1 = 0.9 | 958.7 ± 0.7 | 1.09 ± 0.0097
298.15 K, x1 = 1 | 955.4 ± 0.7 | 0.8723 ± 0.0077
303.15 K, x1 = 0.0211 | 994.2 ± 0.4 | 1.037 ± 0.0098
303.15 K, x1 = 0.0489 | 991.2 ± 0.5 | 1.325 ± 0.012
303.15 K, x1 = 0.1143 | 987.9 ± 0.6 | 1.844 ± 0.018
303.15 K, x1 = 0.225 | 981.2 ± 0.6 | 2.238 ± 0.021
303.15 K, x1 = 0.3111 | 978.7 ± 0.7 | 2.164 ± 0.02
303.15 K, x1 = 0.4 | 972.1 ± 0.7 | 1.904 ± 0.017
303.15 K, x1 = 0.5 | 965.4 ± 0.5 | 1.657 ± 0.014
303.15 K, x1 = 0.6353 | 959.8 ± 0.7 | 1.381 ± 0.012
303.15 K, x1 = 0.75 | 956.4 ± 0.8 | 1.16 ± 0.011
303.15 K, x1 = 0.9 | 953.8 ± 1 | 0.9871 ± 0.01
303.15 K, x1 = 1 | 951.1 ± 1.1 | 0.8175 ± 0.0073
308.15 K, x1 = 0.0211 | 992.1 ± 0.5 | 0.9037 ± 0.0084
308.15 K, x1 = 0.0489 | 988.3 ± 0.5 | 1.165 ± 0.011
308.15 K, x1 = 0.1143 | 984.5 ± 0.6 | 1.58 ± 0.015
308.15 K, x1 = 0.225 | 977.6 ± 0.7 | 1.924 ± 0.018
308.15 K, x1 = 0.3111 | 974.2 ± 0.7 | 1.9 ± 0.018
308.15 K, x1 = 0.4 | 970.7 ± 0.6 | 1.789 ± 0.015
308.15 K, x1 = 0.5 | 964.9 ± 0.5 | 1.595 ± 0.013
308.15 K, x1 = 0.6353 | 955.3 ± 0.8 | 1.247 ± 0.011
308.15 K, x1 = 0.75 | 950.5 ± 0.8 | 1.068 ± 0.0095
308.15 K, x1 = 0.9 | 946 ± 0.9 | 0.7846 ± 0.0083
308.15 K, x1 = 1 | 941.3 ± 1.1 | 0.7774 ± 0.0069
313.15 K, x1 = 0.0211 | 990 ± 0.5 | 0.8272 ± 0.0074
313.15 K, x1 = 0.0489 | 986 ± 0.5 | 1.044 ± 0.0095
313.15 K, x1 = 0.1143 | 980.9 ± 0.6 | 1.4 ± 0.013
313.15 K, x1 = 0.225 | 973.2 ± 0.7 | 1.682 ± 0.016
313.15 K, x1 = 0.3111 | 969.5 ± 0.7 | 1.649 ± 0.016
313.15 K, x1 = 0.4 | 965.9 ± 0.8 | 1.561 ± 0.015
313.15 K, x1 = 0.5 | 960.5 ± 0.7 | 1.419 ± 0.013
313.15 K, x1 = 0.6353 | 950.5 ± 0.8 | 1.129 ± 0.01
313.15 K, x1 = 0.75 | 945.9 ± 0.7 | 0.9708 ± 0.0088
313.15 K, x1 = 0.9 | 941.6 ± 0.7 | 0.7395 ± 0.0066
313.15 K, x1 = 1 | 936.6 ± 0.8 | 0.7368 ± 0.0067
318.15 K, x1 = 0.0211 | 987.5 ± 0.5 | 0.7494 ± 0.0069
318.15 K, x1 = 0.0489 | 983.3 ± 0.6 | 0.9363 ± 0.0085
318.15 K, x1 = 0.1143 | 977.1 ± 0.6 | 1.234 ± 0.011
318.15 K, x1 = 0.225 | 969 ± 0.7 | 1.467 ± 0.014
318.15 K, x1 = 0.3111 | 965 ± 0.7 | 1.441 ± 0.013
318.15 K, x1 = 0.4 | 961.2 ± 0.8 | 1.365 ± 0.013
318.15 K, x1 = 0.5 | 955.7 ± 0.8 | 1.263 ± 0.011
318.15 K, x1 = 0.6353 | 945.9 ± 0.8 | 1.019 ± 0.009
318.15 K, x1 = 0.75 | 941.4 ± 0.8 | 0.8874 ± 0.0081
318.15 K, x1 = 0.9 | 937 ± 0.8 | 0.6952 ± 0.0063
318.15 K, x1 = 1 | 932.1 ± 0.7 | 0.6855 ± 0.0063
323.15 K, x1 = 0.0211 | 985 ± 0.5 | 0.6775 ± 0.0063
323.15 K, x1 = 0.0489 | 980.3 ± 0.6 | 0.8486 ± 0.0078
323.15 K, x1 = 0.1143 | 973.4 ± 0.7 | 1.099 ± 0.01
323.15 K, x1 = 0.225 | 964.8 ± 0.7 | 1.304 ± 0.012
323.15 K, x1 = 0.3111 | 960.7 ± 0.7 | 1.279 ± 0.012
323.15 K, x1 = 0.4 | 956.5 ± 0.8 | 1.207 ± 0.011
323.15 K, x1 = 0.5 | 951 ± 0.8 | 1.136 ± 0.01
323.15 K, x1 = 0.6353 | 941.4 ± 0.8 | 0.9623 ± 0.0085
323.15 K, x1 = 0.75 | 936.7 ± 0.8 | 0.8112 ± 0.0074
323.15 K, x1 = 0.9 | 932.5 ± 0.8 | 0.6516 ± 0.006
323.15 K, x1 = 1 | 927.7 ± 0.8 | 0.6505 ± 0.0061
328.15 K, x1 = 0.0211 | 983 ± 0.6 | 0.6136 ± 0.0058
328.15 K, x1 = 0.0489 | 977.3 ± 0.6 | 0.762 ± 0.0074
328.15 K, x1 = 0.1143 | 969.5 ± 0.7 | 0.9781 ± 0.0088
328.15 K, x1 = 0.225 | 960.4 ± 0.7 | 1.147 ± 0.01
328.15 K, x1 = 0.3111 | 956 ± 0.8 | 1.119 ± 0.01
328.15 K, x1 = 0.4 | 952 ± 0.8 | 1.069 ± 0.0098
328.15 K, x1 = 0.5 | 946.3 ± 0.8 | 1.007 ± 0.0092
328.15 K, x1 = 0.6353 | 936.7 ± 0.8 | 0.8648 ± 0.0083
328.15 K, x1 = 0.75 | 932.1 ± 0.8 | 0.7423 ± 0.0068
328.15 K, x1 = 0.9 | 927.8 ± 0.8 | 0.6014 ± 0.0058
328.15 K, x1 = 1 | 923.2 ± 0.8 | 0.5905 ± 0.0058
333.15 K, x1 = 0.0211 | 979.3 ± 0.6 | 0.5649 ± 0.0052
333.15 K, x1 = 0.0489 | 974.1 ± 0.6 | 0.6555 ± 0.0063
333.15 K, x1 = 0.1143 | 965.8 ± 0.7 | 0.8941 ± 0.0081
333.15 K, x1 = 0.225 | 956.4 ± 0.7 | 1.037 ± 0.0092
333.15 K, x1 = 0.3111 | 951.4 ± 0.8 | 1.008 ± 0.0091
333.15 K, x1 = 0.4 | 947.5 ± 0.8 | 0.9636 ± 0.0088
333.15 K, x1 = 0.5 | 941.6 ± 0.8 | 0.9199 ± 0.0083
333.15 K, x1 = 0.6353 | 931.9 ± 0.8 | 0.7522 ± 0.0072
333.15 K, x1 = 0.75 | 927.3 ± 0.8 | 0.6899 ± 0.0063
333.15 K, x1 = 0.9 | 923 ± 0.8 | 0.5378 ± 0.0053
333.15 K, x1 = 1 | 918.5 ± 0.8 | 0.5329 ± 0.0054
338.15 K, x1 = 0.0211 | 976.3 ± 0.6 | 0.5403 ± 0.0051
338.15 K, x1 = 0.0489 | 970.8 ± 0.6 | 0.6149 ± 0.0055
338.15 K, x1 = 0.1143 | 961.7 ± 0.6 | 0.8036 ± 0.0085
338.15 K, x1 = 0.225 | 952.2 ± 0.6 | 0.9466 ± 0.0096
338.15 K, x1 = 0.3111 | 946.9 ± 0.7 | 0.9064 ± 0.0084
338.15 K, x1 = 0.4 | 942.8 ± 0.8 | 0.8656 ± 0.008
338.15 K, x1 = 0.5 | 936.7 ± 0.9 | 0.8403 ± 0.0083
338.15 K, x1 = 0.6353 | 927.5 ± 0.6 | 0.6948 ± 0.0061
338.15 K, x1 = 0.75 | 922.6 ± 0.7 | 0.641 ± 0.0063
338.15 K, x1 = 0.9 | 918.5 ± 0.9 | 0.4964 ± 0.0046
338.15 K, x1 = 1 | 914 ± 0.8 | 0.4815 ± 0.005
